Test results: ChEMBL document CHEMBL1135829, “Investigations on estrogen receptor binding. The estrogenic, antiestrogenic, and cytotoxic properties of C2-alkyl-substituted 1,1-bis(4-hydroxyphenyl)-2-phenylethenes” (J Med Chem, 2002)
pIC50: −log10 of the molar value.

Columns and labels:
MCF-7 (Homo sapiens) [1] = experiment: Cytotoxicity against MCF-7 cells at 5 uM.
Estrogen receptor = molecular target: T1, Estrogen receptor (Homo sapiens, UniProt P03372); experiment: Antiestrogenic activity in MCF-7-2a cells as concentration required to reduce estradiol effect by 50%; assay type: functional, cell-based
T1 sequence (P03372 whole entry): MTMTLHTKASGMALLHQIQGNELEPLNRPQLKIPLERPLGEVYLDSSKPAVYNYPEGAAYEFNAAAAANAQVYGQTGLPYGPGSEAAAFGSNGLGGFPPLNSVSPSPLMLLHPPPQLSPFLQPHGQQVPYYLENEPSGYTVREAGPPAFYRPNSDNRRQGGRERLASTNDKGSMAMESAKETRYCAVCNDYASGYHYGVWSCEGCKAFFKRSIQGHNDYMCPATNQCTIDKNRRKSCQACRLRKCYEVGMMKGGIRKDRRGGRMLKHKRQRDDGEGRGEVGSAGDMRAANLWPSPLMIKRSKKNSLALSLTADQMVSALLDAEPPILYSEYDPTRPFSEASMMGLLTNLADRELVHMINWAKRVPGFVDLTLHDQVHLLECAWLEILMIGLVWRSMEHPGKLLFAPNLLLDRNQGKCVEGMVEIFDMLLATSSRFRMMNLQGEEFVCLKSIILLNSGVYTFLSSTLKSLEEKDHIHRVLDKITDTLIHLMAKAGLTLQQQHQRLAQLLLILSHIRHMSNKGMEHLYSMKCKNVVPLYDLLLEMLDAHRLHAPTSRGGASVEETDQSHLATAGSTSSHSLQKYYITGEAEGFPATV

MCF-7 (Homo sapiens) [2] = experiment: Antitumor activity against MCF-7 cells at 5 uM.

pIC50 (Estrogen receptor) | Structure (SMILES) | Cytotoxicity (MCF-7 (Homo sapiens) [1]) | Cytotoxicity (MCF-7 (Homo sapiens) [2])
7.82 | CCC(=C(c1ccc(O)cc1)c1ccc(O)cc1)c1ccccc1 | 99% | –
7.30 | CCCC(=C(c1ccc(O)cc1)c1ccc(O)cc1)c1ccccc1 | 98% | –
7.52 | CC(=C(c1ccc(O)cc1)c1ccc(O)cc1)c1ccccc1 | 90% | –
8.05 | Oc1ccc(C(=C(CC(F)(F)F)c2ccccc2)c2ccc(O)cc2)cc1 | 68% | –
– | CC/C(=C(\c1ccccc1)c1ccc(OCCN(C)C)cc1)c1ccccc1 [TAMOXIFEN] | – | 15%
8.15 | CC/C(=C(\c1ccccc1)c1ccc(O)cc1)c1ccccc1 | – | 25%
6.30 | CCCCC(=C(c1ccc(O)cc1)c1ccc(O)cc1)c1ccccc1 | – | 87%
6.82 | Oc1ccc(C(=Cc2ccccc2)c2ccc(O)cc2)cc1 | – | 92%
